According to paper PMC7766697, “Toxicological Screening of Four Bioactive Citroflavonoids: In Vitro, In Vivo, and In Silico Approaches” (Molecules, 2020):
Like-named read-outs stand apart in the source and are kept apart here.

What was measured:
Wistar rats [1] = test: Acute oral toxicity, OECD Test No. 423 (mortality, signs, LD50, body weight); format: in vivo
Description: Female Wistar rats (250 g b.w.) were used. These animals were obtained from Bioterium from División de Ciencias de la Salud at the Universidad de Quintana Roo. They were maintained under standard environmental conditions (22 ± 3 °C, 12 h/12 h light/dark cycle), and free access to standard rodent diet and water ad libitum. All animal procedures were conducted under our Federal Regulations for Animal Experimentation and Care and were approved by the Institutional Animal Care and Use Committee of the “Universidad Juárez Autónoma de Tabasco” university (Code:2017-001, Approved: October 2017). Rats were acclimatized for 1 week before the start of experimental procedures.
The half lethal dose (LD50) was estimated using the fixed-dose method described in OECD Guidelines for the Testing of Chemicals (Test No. 423: Acute Oral Toxicity-Class Method; OECD, 2001). […] This method allowed a step-by-step assay according to the chosen dose to begin the experiment. Subsequently, depending on the presence or absence of mortality, the decision to continue within the next step is taken, so fewer experimental animals should be used.
(§1) Rats used for this experiment were fasted for 8 h and were organized into two groups of three rats for each dose and each flavonoid. Likewise, the control group received isotonic 0.9% sodium chloride solution (dose: 5 mL/kg). All rats were closely observed for toxic symptoms and behavioral changes (sedation, hyperactivity, writhing, pruritus, feeding and drinking habits, general morphological changes, and bite legs) for 30 min and periodically 24 h post-administration. Animals were observed daily (14 days) and mortality rate recorded. A LD50 was estimated according to criteria of OECD guide 423.
The rats’ body weight in each group was determined and recorded before the treatment initiation and after 14 days. Changes in the body weight at the end of the 14 days were calculated. Once observation time was completed and to detect any adverse effect, blood samples were collected by cardiac puncture after the previous fasting of 8 h. […] In addition, organ weight was determined.

Sprague Dawley rats = test system: Sprague Dawley rats; design: method as in PMID 30991075; details: early report; cited from earlier work
VERO cells = test: MTT-based cytotoxicity assay in VERO cells; format: cell-based, green Monkey; details: 48 h, 125 to 750 µg/mL (QRT effect at 250–750 µg/mL)
Description: (§2) VERO and MDCK cell lines were acquired from American Type Culture Collection (ATCC, Manassas, VA, USA). […] In vitro cytotoxicity assay was performed on Madin-Darby Canine Kidney Epithelial Cells (MDCK) and green Monkey Kidney Cells (VERO) by MTT-based assay. Briefly, cells were seeded in 96-well plates at a density of 2.5 × 10^3 cells/well. […] The absorbance was measured after 45 min using a microplate reader (Multiskan Asent®) at a wavelength of 550 nm. The criteria for categorizing cytotoxicity against MDCK and VERO cells are based on the U.S. National Cancer Institute (NCI). The criteria comprise as follow: […] All results were expressed as mean ± standard error. The results from the in vivo and in vitro experiments were analyzed using software Origin® 8.0. […] The IC50 (half inhibitory concentration) values were calculated in Origin software®, (Northampton, MA, USA) and one-way ANOVA analysis was compared with cisplatin as the control.

Sprague-Dawley rats = test system: Sprague-Dawley rats; design: method as in PMID 28662177; details: sub-chronic oral, 13 weeks, cited from earlier work
Wistar rats [2] = format: in vivo
Description: as §1
The rats’ body weight in each group was determined and recorded before the treatment initiation and after 14 days. Changes in the body weight at the end of the 14 days were calculated. Once observation time was completed and to detect any adverse effect, blood samples were collected by cardiac puncture after the previous fasting of 8 h. For this purpose, rats were anesthetized by intraperitoneally 50 mg/kg sodium pentobarbital. The liver was carefully extracted, rinsed in normal saline, drained on blotting paper, and carefully examined for tissue lesions. In addition, organ weight was determined.
Rat blood samples were analyzed by a hematology auto-analyzer system (Sysmex XS-1000i®, SYSMEX®, Oak Ridge, TN, USA). The parameters quantified on this stage were: blood count-packed cell volume (PCV), red blood cell (RBC) count, hemoglobin (Hb), platelet count, white blood cell (WBC) count, mean cell hemoglobin concentration (MCHC), mean red cell volume (MCV), mean cell hemoglobin (MCH), prothrombin time (PT), and activated partial thromboplastin time (aPTT).

Wistar rats [3] = test system: Wistar rats
MDCK cells = test: MTT-based cytotoxicity assay in MDCK cells; format: cell-based, Canine; details: 48 h, 125 to 750 µg/mL (QRT effect at 250 and 500 µg/mL)
Description: as §2

panel of five cell lines = test system: panel of five cell lines; design: method as in PMID 28662177; details: 5–50 µg/mL; cited from earlier work
[4] = rats, oral 300 mg/kg, after 14 days
[5] = rats, oral 2000 mg/kg, after 14 days
[6] = rats, oral 300 mg/kg, after 14 days, plasma
[7] = rats, oral 2000 mg/kg, after 14 days, plasma

## COc1ccc([C@@H]2CC(=O)c3c(O)cc(O[C@@H]4O[C@H](CO[C@@H]5O[C@@H](C)[C@H](O)[C@@H](O)[C@H]5O)[C@@H](O)[C@H](O)[C@H]4O)cc3O2)cc1O [HESP, hesperidin]
Wistar rats [1]; oral 300 mg/kg, days 7 and 10
  weight gain vs control: considerable weight gain differences
Sprague Dawley rats
  acute oral LD50: 4837.5 mg/kg
VERO cells
  percentage viability / growth of cells: did not change the percentage of growth
Sprague-Dawley rats; 1000 mg/kg
  weight gain: did at 1000 mg/kg
Sprague-Dawley rats; 250 and 500 mg/kg
  weight gain: did not modify weight gain
Wistar rats [2]; [4]
  APTT: 28.53 ± 4.31 s
  Basophils: 2.13±1.74 103/µL
  Eosinophils: 3.60±0.76 103/µL
  Erythrocytes: 7.90±0.30 106/µL
  Hb: 14.20 ± 0.37 g/dL
  Hto: 44.96±0.91%
  Leukocytes: 4.50±0.89 103/µL
  Lymphocytes: 72.27±4.36 103/µL
  MCH: 18.00 ± 0.24 pg
  MCHC: 31.56 ± 0.64 g/dL
  MCV: 57.06 ± 1.87 fL
  Monocytes: 7.07±1.50 103/µL
  PT: 17.86 ± 0.40 s
  Platelets: 720.00±125.23 105/µL
  RBCDW: 17.00±0.61%
Wistar rats [2]; [5]
  APTT: 32.53 ± 3.93 s
  Basophils: 0.00±0.00 103/µL
  Eosinophils: 3.67±0.54 103/µL
  Erythrocytes: 8.04±0.22 106/µL
  Hb: 14.20 ± 0.36 g/dL
  Hto: 43.26±0.89%
  Leukocytes: 6.68±0.72 103/µL
  Lymphocytes: 77.33±3.24 103/µL
  MCH: 17.70 ± 0.24 pg
  MCHC: 32.83 ± 0.35 g/dL
  MCV: 53.86 ± 0.37 fL
  Monocytes: 7.13±1.15 103/µL
  PT: 17.73 ± 0.50 s
  Platelets: 628.66±28.31 105/µL
  RBCDW: 17.83±1.50%
Wistar rats [3]; [6]
  ALB (albumin): 4.15 ± 0.20 g/dL
  ALB/GL Ratio: 2.36 ± 0.101
  ALT: 33.78 ± 1.30 IU/L
  AST: 126.00 ± 13.18 IU/L
  DB (direct bilirubin): 0.020 ± 0.005 mg/dL
  GL (globulin): 1.76 ± 0.069 g/dL
  GLU (glucose): 155.33 ± 18.71 mg/dL
  IB (indirect bilirubin): 0.029 ± 0.003 mg/dL
  TB (total bilirubin): 0.051 ± 0.002 mg/dL
  TP (total protein): 5.91 ± 0.25 g/dL
Wistar rats [3]; [7]
  ALB (albumin): 4.20 ± 0.22 g/dL
  ALB/GL Ratio: 2.38 ± 0.270
  ALT: 41.19 ± 2.83 IU/L
  AST: 226.65 ± 44.80 IU/L
  DB (direct bilirubin): 0.018 ± 0.005 mg/dL
  GL (globulin): 1.80 ± 0.108 g/dL
  GLU (glucose): 192.06 ± 12.73 mg/dL
  IB (indirect bilirubin): 0.046 ± 0.010 mg/dL
  TB (total bilirubin): 0.060 ± 0.06 mg/dL
  TP (total protein): 5.99 ± 0.11 g/dL
Wistar rats [3]; rats, oral, doses tested, more evident at NAR 300 and 2000 mg/kg and NARGE 300 mg/kg
  glucose values vs control: slightly amended glucose values
MDCK cells
  percentage viability / growth of cells: did not change the percentage of growth

## C[C@@H]1O[C@@H](O[C@H]2[C@H](Oc3cc(O)c4c(c3)O[C@H](c3ccc(O)cc3)CC4=O)O[C@H](CO)[C@@H](O)[C@@H]2O)[C@H](O)[C@H](O)[C@H]1O [NAR, naringin]
Panel of five cell lines
  cytotoxicity (mitochondrial membrane potential, cell membrane integrity, nuclear morphology): not cytotoxic
Wistar rats [1]; oral, 14 days
  weight gain / body weight vs control: changed the body weight
VERO cells
  percentage viability / growth of cells: did not change the percentage of growth
Wistar rats [2]; rat, in vivo, po, 300 mg/kg
  Erythrocytes: 7.79±0.27 106/µL
  Hb: 14.03 ± 0.38 g/dL
  Hto: 40.63±1.03%
  Leukocytes: 2.65±0.30 103/µL
  MCH: 18.03 ± 0.16 pg
  MCV: 54.40 ± 1.92 fL
  Platelets: 726.00±12.26 105/µL
  RBCDW: 16.16±0.58%
Wistar rats [2]; rat, in vivo, po, 2000 mg/kg
  Erythrocytes: 7.41±0.11 106/µL
  Hb: 13.67 ± 0.16 g/dL
  Hto: 40.66±0.39%
  Leukocytes: 4.45±0.98 103/µL
  MCH: 18.43 ± 0.05 pg
  MCHC: 33.50 ± 0.14 g/dL
  MCV: 54.86 ± 0.38 fL
  Platelets: 553.00±239.61 105/µL
  RBCDW: 15.80±0.12%
Wistar rats [3]; rat, in vivo, po, 300 mg/kg
  ALB (albumin): 4.50 ± 0.02 g/dL
  ALT: 27.57 ± 0.62 IU/L
  AST: 144.58 ± 17.05 IU/L
  DB (direct bilirubin): 0.012 ± 0.0009 mg/dL
  GL (globulin): 1.97 ± 0.04 g/dL
  GLU (glucose): 125.54 ± 14.59 mg/dL
  IB (indirect bilirubin): 0.024 ± 0.0007 mg/dL
  TB (total bilirubin): 0.037 ± 0.001 mg/dL
  TP (total protein): 6.48 ± 0.04 g/dL
Wistar rats [3]; rat, in vivo, po, 2000 mg/kg
  ALB (albumin): 4.66 ± 0.16 g/dL
  ALT: 38.59 ± 1.08 IU/L
  AST: 128.26 ± 5.33 IU/L
  DB (direct bilirubin): 0.015 ± 0.001 mg/dL
  GL (globulin): 2.03 ± 0.05 g/dL
  GLU (glucose): 138.55 ± 10.48 mg/dL
  IB (indirect bilirubin): 0.025 ± 0.003 mg/dL
  TB (total bilirubin): 0.039 ± 0.004 mg/dL
  TP (total protein): 6.71 ± 0.14 g/dL
Wistar rats [3]; [6]
  ALB/GL Ratio: 2.30 ± 0.05
Wistar rats [3]; [7]
  ALB/GL Ratio: 2.32 ± 0.12
MDCK cells
  percentage viability / growth of cells: did not change the percentage of growth
